Reference: ChEMBL document CHEMBL6120949, “Fully Synthetic TF-Based Self-Adjuvanting Vaccine Simultaneously Triggers iNKT Cells and Mincle and Protects Mice against Tumor Development” (2024)
Active and inactive are the calls of the source. The calls are words filed in the database; no cut-off is given here.

Experiments:
[1] = target: T1, C-type lectin domain family 4 member E (Homo sapiens) (UniProt Q9ULY5); assay: Binding affinity to Fc-fused human Mincle incubated for 1.5 hrs by ELISA
T1 sequence (whole entry): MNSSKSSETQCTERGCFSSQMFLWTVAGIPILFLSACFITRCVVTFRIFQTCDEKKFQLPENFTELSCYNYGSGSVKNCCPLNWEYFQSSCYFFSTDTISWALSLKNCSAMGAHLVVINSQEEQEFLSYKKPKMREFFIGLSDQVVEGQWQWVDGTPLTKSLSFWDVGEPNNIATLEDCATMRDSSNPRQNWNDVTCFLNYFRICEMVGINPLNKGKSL

Mus musculus [2] = assay: Immunization of Balb/c mouse assessed as decrease in TF-specific IgM titer compound administered as liposomes subcutaneously on day 0 in presence of TF followed by administration of booster doses on days 14, 21 and 28 measured on days 21, 27 and 38 by ELISA; assay type: functional, organism-based; conditions: route sc, time 38.0 day
Mus musculus [3] = assay: Immunization of Balb/c mouse assessed as increase in IgG titer compound administered as liposomes subcutaneously on day 0 in presence of TF followed by administration of booster doses on days 14, 21 and 28 measured on days 21, 27 and 38 by ELISA; assay type: functional, organism-based; conditions: route sc, time 38.0 day
Mus musculus [4] = assay: Immunization of Balb/c mouse assessed as IgG titer compound administered as liposomes subcutaneously on day 0 in presence of TF followed by administration of booster doses on days 14, 21 and 28 measured on days 21, 27 and 38 by ELISA; assay type: functional; conditions: route sc; time 38 day
Mus musculus [5] = assay: Immunization of Balb/c mouse assessed as increase in kappa light chain titer compound administered as liposomes subcutaneously on day 0 in presence of TF followed by administration of booster doses on days 14, 21 and 28 measured on days 21, 27 and 38 by ELISA; assay type: functional, organism-based; conditions: route sc, time 38.0 day
Mus musculus [6] = assay: Immunization of Balb/c mouse assessed as increase in IFN-gamma level compound administered as liposomes subcutaneously on day 0 in presence of TF followed by administration of booster doses on days 14, 21 and 28 measured on days 21, 27 and 38 by ELISA; assay type: functional, organism-based; conditions: route sc, time 38.0 day
TA3/Ha [7] = assay: Binding ability of anti-serum derived from compound-vaccinated mouse to TF-positive mouse TA3/Ha cells cultured with FITC-labeled anti-IgG Ab assessed as positive fluorescent peak shift by FACS analysis; assay type: functional, cell-based
4T1-Luc [8] = assay: Binding ability of anti-serum derived from compound-vaccinated mouse to TF-positive mouse 4T1-Luc cells cultured with FITC-labeled anti-IgG Ab assessed as positive fluorescent peak shift by FACS analysis; assay type: functional, cell-based
MDA-MB-468 [9] = assay: Binding ability of anti-serum derived from compound-vaccinated mouse to TF-negative human MDA-MB-468 cells cultured with FITC-labeled anti-IgG Ab assessed as positive fluorescent peak shift by FACS analysis; assay type: functional, cell-based
TA3/Ha [10] = assay: Cytotoxicity against TF-positive mouse TA3/Ha cells treated with anti-serum derived from compound-vaccinated mouse for 2 hrs followed by anti-serum washout and addition of rabbit complement serum measured after 1 hr by LDH assay; assay type: functional, cell-based
4T1-Luc [11] = assay: Cytotoxicity against TF-positive mouse 4T1-Luc cells treated with anti-serum derived from compound-vaccinated mouse for 2 hrs followed by anti-serum washout and addition of rabbit complement serum measured after 1 hr by LDH assay; assay type: functional, cell-based
MDA-MB-468 [12] = assay: Cytotoxicity against TF-negative human MDA-MB-468 cells treated with anti-serum derived from compound-vaccinated mouse for 2 hrs followed by anti-serum washout and addition of rabbit complement serum measured after 1 hr by LDH assay; assay type: functional, cell-based
Mus musculus [13] = assay: (§1) Antitumor activity in cyclophosphamide-treated Balb/c mouse assessed as protection against tumor development compound administered as liposomes subcutaneously on day 0 in presence of TF followed by administration of booster doses on days 14, 21 and 28 and implantation of mouse TA3/Ha cells on day 35 measured upto 50 days post-tumor challenge; assay type: functional, organism-based; conditions: route sc, time <= 85.0 day
Mus musculus [14] = assay: as §1, with “average survival time” for “protection against tumor development”; assay type: functional; conditions: route sc; time <= 85 day
Mus musculus [15] = assay: as §1, with “survival ratio” for “protection against tumor development”, “challenge relative to control” for “challenge”; assay type: functional; conditions: route sc; time <= 85 day
Mus musculus [16] = assay: as §1, with “rejection of” for “protection against”, “tumor” for “tumor development”, “challenge followed by re-implantation of another mouse TA3/Ha cells measured for another 100 days post-tumor challenge” for “challenge”; assay type: functional, organism-based; conditions: route sc, time 185.0 day
Mus musculus [17] = assay: Antitumor activity in cyclophosphamide-treated surviving Balb/c mouse assessed as increase in IgG antibody titer compound administered as liposomes subcutaneously on day 0 in presence of TF followed by administration of booster doses on days 14, 21 and 28 and implantation of mouse TA3/Ha cells on day 35 measured upto 50 days post-tumor challenge followed by re-implantation of another mouse TA3/Ha cells measured for another 30 days post-tumor challenge by ELISA; assay type: functional, organism-based; conditions: route sc, time <= 115.0 day
TA3/Ha [18] = assay: Binding ability of anti-serum derived from compound-vaccinated surviving mouse to TF-positive mouse TA3/Ha cells cultured with FITC-labeled anti-IgG Ab assessed as positive fluorescent peak shift by FACS analysis; assay type: functional, cell-based
[19] = target: T2, Antigen-presenting glycoprotein CD1d1 (Mus musculus) (UniProt P11609); assay: Binding affinity to His-tagged mouse CD1d incubated for 1.5 hrs by ELISA
T2 sequence (whole entry): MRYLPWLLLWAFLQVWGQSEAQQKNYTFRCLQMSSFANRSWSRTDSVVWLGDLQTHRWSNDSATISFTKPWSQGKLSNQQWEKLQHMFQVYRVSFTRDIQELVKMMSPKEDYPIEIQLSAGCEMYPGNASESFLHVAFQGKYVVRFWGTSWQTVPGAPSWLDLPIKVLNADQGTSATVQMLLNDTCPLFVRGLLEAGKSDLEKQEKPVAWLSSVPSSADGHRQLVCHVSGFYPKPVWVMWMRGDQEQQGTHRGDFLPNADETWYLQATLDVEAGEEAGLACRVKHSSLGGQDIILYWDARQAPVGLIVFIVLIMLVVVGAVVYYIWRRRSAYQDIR

Mus musculus [20] = assay: Immunization of Balb/c mouse assessed as increase in IgG2a titer compound administered as liposomes subcutaneously on day 0 in presence of TF followed by administration of booster doses on days 14, 21 and 28 measured on days 21, 27 and 38 by ELISA; assay type: functional, organism-based; conditions: route sc, time 38.0 day
Mus musculus [21] = assay: Immunization of Balb/c mouse assessed as IFN-gamma level compound administered as liposomes subcutaneously on day 0 in presence of TF followed by administration of booster doses on days 14, 21 and 28 measured on days 21, 27 and 38 by ELISA; assay type: functional; conditions: route sc; time 38 day
Mus musculus [22] = assay: as §1, with “in” for “in cyclophosphamide-treated”, “average survival time” for “protection against tumor development”; assay type: functional; conditions: route sc; time <= 85 day
Mus musculus [23] = assay: as §1, with “in” for “in cyclophosphamide-treated”, “survival ratio” for “protection against tumor development”, “challenge relative to control” for “challenge”; assay type: functional; conditions: route sc; time <= 85 day

Compound | Activity [1] | Activity (Mus musculus [2]) | Activity (Mus musculus [3]) | Activity (Mus musculus [4]) | Activity (Mus musculus [5]) | Activity (Mus musculus [6]) | Activity (TA3/Ha [7]) | Activity (4T1-Luc [8]) | Activity (MDA-MB-468 [9]) | Activity (TA3/Ha [10]) | Activity (4T1-Luc [11]) | Activity (MDA-MB-468 [12]) | Activity (Mus musculus [13]) | Time (Mus musculus [14]) [days] | Survival (Mus musculus [15]) [%] | Activity (Mus musculus [16]) | Activity (Mus musculus [17]) | Activity (TA3/Ha [18]) | Activity [19] | also measured
CCCCCCCCCC(CCCCCCCCC)CC(=O)OC[C@H]1O[C@H](O[C@H]2O[C@H](COC(=O)CC(CCCCCCCCC)CCCCCCCCC)[C@@H](OCCOCCNC(=O)CCC(=O)NCc3cn(CCO[C@H]4O[C@H](CO)[C@H](O)[C@H](O[C@@H]5O[C@H](CO)[C@H](O)[C@H](O)[C@H]5O)[C@H]4NC(C)=O)nn3)[C@H](O)[C@H]2O)[C@H](O)[C@@H](O)[C@@H]1O | Active | Active; Result Reveals That Efficient Conversion Of Igm To Igg Had Occurred And That Long-Term Secondary Immune Responses Had Been Triggered | Active | 66937 | Active; Compound Induced Strong Tf-Specific And T-Cell-Dependent Immune Response | Active | Active | Active | inactive | Active; Result Reveals That The Anti-Serum Induced By Compound Effectively Activated The Complement System | Active; Result Reveals That The Anti-Serum Induced By Compound Effectively Activated The Complement System | inactive | Active | 38.8 | 50 | Active | Active | Active |  | 
CCCCCCCCCCCCCCCCCCCCCCCCCC(=O)N[C@@H](CO[C@H]1O[C@H](CNC(=O)CCCCC(=O)NCCCC[C@H](NC(=O)CCC(=O)NCCOCCO[C@H]2[C@H](O)[C@@H](O)[C@@H](O[C@H]3O[C@H](COC(=O)CC(CCCCCCCCC)CCCCCCCCC)[C@@H](O)[C@H](O)[C@H]3O)O[C@@H]2COC(=O)CC(CCCCCCCCC)CCCCCCCCC)C(=O)NCc2cn(CCO[C@H]3O[C@H](CO)[C@H](O)[C@H](O[C@@H]4O[C@H](CO)[C@H](O)[C@H](O)[C@H]4O)[C@H]3NC(C)=O)nn2)[C@H](O)[C@H](O)[C@H]1O)[C@H](O)[C@H](O)CCCCCCCCCCCCCC | Active | Active; Result Reveals That Efficient Conversion Of Igm To Igg Had Occurred And That Long-Term Secondary Immune Responses Had Been Triggered | Active | 96611 | Active; Compound Induced Strong Tf-Specific And T-Cell-Dependent Immune Response | Active | Active; Compound-Derived Antibodies In Antiserum Exhibited Strongest Binding Activity | Active; Compound-Derived Antibodies In Antiserum Exhibited Strongest Binding Activity | inactive | Active; Result Reveals That The Anti-Serum Induced By Compound Effectively Activated The Complement System | Active; Result Reveals That The Anti-Serum Induced By Compound Effectively Activated The Complement System | inactive | Active | 43.8 | 75 | Active | Active; Exhibited Superior Effect | Active | Active | Activity (Mus musculus [20]): Active; Activity (Mus musculus [21]): 263 pg/mL; Time (Mus musculus [22]): 34.5 days; Survival (Mus musculus [23]): 37.5%
CCCCCCCCCCCCCCCCCCCCCCCCCC(=O)N[C@@H](CO[C@H]1O[C@H](CNC(=O)CCCCC(=O)NCc2cn(CCO[C@H]3O[C@H](CO)[C@H](O)[C@H](O[C@@H]4O[C@H](CO)[C@H](O)[C@H](O)[C@H]4O)[C@H]3NC(C)=O)nn2)[C@H](O)[C@H](O)[C@H]1O)[C@H](O)[C@H](O)CCCCCCCCCCCCCC |  | Active; Result Reveals That Efficient Conversion Of Igm To Igg Had Occurred And That Long-Term Secondary Immune Responses Had Been Triggered | Active | 54112 | Active; Compound Induced Strong Tf-Specific And T-Cell-Dependent Immune Response | Active | Active | Active | inactive | Active; Result Reveals That The Anti-Serum Induced By Compound Effectively Activated The Complement System | Active; Result Reveals That The Anti-Serum Induced By Compound Effectively Activated The Complement System | inactive | Active | 34.4 | 37.5 | Active | Active | Active | Active | 
